Results reported in ChEMBL document CHEMBL4418308, “cGAS ANTAGONIST COMPOUNDS” (2017).

Columns and labels:
[1] = target: T1, Cyclic GMP-AMP synthase (Homo sapiens, UniProt Q8N884); test: Inhibition of CGAS in human THP1 cells transfected with mock Sendai virus and measured after 16 hrs by Gaussia luciferase reporter gene assay; assay type: cell-based
[2] = target: T1, Cyclic GMP-AMP synthase; test: Inhibition of recombinant His6-SUMO tagged human CGAS expressed in Escherichia coli BL21/pLys cells incubated for 20 mins by Kinase Glo chemiluminescence assay
[3] = target: T1, Cyclic GMP-AMP synthase; test: Inhibition of CGAS in human THP1 cells transfected with interferon stimulatory DNA and measured after 16 hrs by Gaussia luciferase reporter gene assay; assay type: cell-based

T1 sequence (Q8N884 whole entry): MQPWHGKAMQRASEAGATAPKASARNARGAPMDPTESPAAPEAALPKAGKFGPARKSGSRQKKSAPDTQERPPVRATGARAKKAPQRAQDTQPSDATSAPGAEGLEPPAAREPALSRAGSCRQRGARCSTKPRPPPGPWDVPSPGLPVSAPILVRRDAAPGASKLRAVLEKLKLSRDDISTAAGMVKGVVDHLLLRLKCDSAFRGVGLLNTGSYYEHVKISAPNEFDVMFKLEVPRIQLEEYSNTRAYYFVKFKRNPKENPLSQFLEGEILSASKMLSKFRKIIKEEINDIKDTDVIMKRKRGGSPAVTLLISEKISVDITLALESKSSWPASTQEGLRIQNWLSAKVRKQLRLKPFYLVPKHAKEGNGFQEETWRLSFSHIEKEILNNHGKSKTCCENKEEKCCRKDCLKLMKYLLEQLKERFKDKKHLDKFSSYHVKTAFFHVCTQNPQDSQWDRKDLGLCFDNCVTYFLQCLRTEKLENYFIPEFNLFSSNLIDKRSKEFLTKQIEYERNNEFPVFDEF

Structure (SMILES) | IC50 [1] [µM] | IC50 [2] [nM] | IC50 [3] [nM]
O=C1/C(=C/c2cc(CC(F)(F)F)c(O)cc2Br)Sc2ncccc21 | ≥ 10 | ≤ 500 | 2500 to 10000
O=C1/C(=C/c2cc(OCc3cncnc3)c(O)cc2Br)Sc2ncccc21 | ≥ 10 | ≤ 500 | 2500 to 10000
CN1C(=O)S/C(=C\c2cc(OCc3cnc[nH]3)c(O)cc2Br)C1=O | ≥ 10 | ≥ 10000 | 2500 to 10000
CNc1ncc(COc2cc(/C=C3\Sc4ncccc4C3=O)c(Br)cc2O)cn1 | ≥ 10 | ≤ 500 | 2500 to 10000
COc1cc(/C=C2\SC(=O)N(C)C2=O)c(Br)cc1NS(=O)(=O)c1csc(N)n1 |  | 500 to 10000 | ≤ 2500
CNc1ncc(COc2cc(/C=C3\Sc4ncccc4C3=O)c(Br)c(F)c2O)cn1 | ≥ 10 | ≤ 500 | 2500 to 10000
CN1C(=O)S/C(=C\c2cc(OCc3cnc(NCc4ccccn4)nc3)c(O)cc2Br)C1=O | ≥ 10 | ≤ 500 | 2500 to 10000
CN1C(=O)S/C(=C\c2cc(OCc3cncnc3)c(O)c(F)c2Br)C1=O |  | ≤ 500 | 2500 to 10000
CN1C(=O)S/C(=C\c2cc(OCc3cnc(Cl)nc3N)c(O)c(F)c2Br)C1=O |  | ≤ 500 | 2500 to 10000
COc1cc(/C=C2\Sc3ncccc3C2=O)c(Br)cc1O |  | ≤ 500 | 2500 to 10000
CC(Oc1cc(/C=C2\Sc3ncccc3C2=O)c(Br)cc1O)c1cnc(NCCO)nc1 (configuration not stated) |  | ≤ 500 | 2500 to 10000
CN1C(=O)S/C(=C\c2cc(OCc3cnc(N4CCNCC4)nc3)c(O)cc2Br)C1=O | ≥ 10 | ≤ 500 | 2500 to 10000
CN1C(=O)S/C(=C\c2cc(Oc3ccc(N)nc3)c(O)cc2Br)C1=O | ≥ 10 | ≥ 10000 | 2500 to 10000
CN1C(=O)S/C(=C\c2cc(OCc3cnc(NCc4cccnc4)nc3)c(O)c(F)c2Br)C1=O |  | 500 to 10000 | 2500 to 10000
CN1C(=O)S/C(=C\c2cc(OCc3cnc(Cl)nc3)c(O)c(F)c2Br)C1=O |  | ≥ 10000 | 2500 to 10000
Nc1ncc(COc2cc(/C=c3\sc4nccn4c3=O)c(Br)cc2O)cn1 |  | 500 to 10000 | ≤ 2500
Cc1ncc(COc2cc(/C=C3\Sc4ncccc4C3=O)c(Br)cc2O)cn1 |  | ≤ 500 | 2500 to 10000
COc1cc(/C=C2\SC(=S)N(C)C2=O)c(Br)cc1O |  | ≤ 500 | 2500 to 10000
CN1C(=O)S/C(=C\c2cc(O)c(O)cc2Br)C1=O |  | ≥ 10000 | 2500 to 10000
CN1C(=O)S/C(=C\c2cc(OCc3cccnc3)c(O)cc2Br)C1=O |  | ≤ 500 | 2500 to 10000
CN1C(=O)S/C(=C\c2cc(OCc3cccnc3)c(O)c(F)c2Br)C1=O |  | ≤ 500 | 2500 to 10000
CN1C(=O)S/C(=C\c2cc(OCC(=O)c3cnc(N)nc3)c(O)c(F)c2Br)C1=O |  | 500 to 10000 | 2500 to 10000
CN1C(=O)S/C(=C\c2cc(OCc3ccncc3)c(O)cc2Br)C1=O |  | 500 to 10000 | ≤ 2500
O=C1/C(=C/c2cc(OCc3cnc(Cl)nc3)c(O)cc2Br)Sc2ncccc21 |  | ≤ 500 | 2500 to 10000
COc1cc(/C=C2\Sc3ccccc3C2=O)c(Br)cc1O |  | 500 to 10000 | ≤ 2500
C#CCOc1cc(/C=C2\SC(=O)N(C)C2=O)c(Br)cc1O |  | 500 to 10000 | 2500 to 10000
CCN1C(=O)S/C(=C\c2cc(OC)c(O)cc2Br)C1=O |  | 500 to 10000 | 2500 to 10000
COc1cc(/C=C2\SC(=O)N(C)C2=O)c(Br)cc1NS(=O)(=O)c1ccccn1 |  | ≥ 10000 | 2500 to 10000

Structure (SMILES) | IC50 [1] [µM] | IC50 [2] [nM] | IC50 [3] [nM]
CCOc1cc(/C=C2\Sc3ncccc3C2=O)c(Br)cc1O |  | ≤ 500 | 2500 to 10000
COc1cc(/C=c2\sc3nccn3c2=O)c(Br)cc1O |  | ≤ 500 | 2500 to 10000
O=C1/C(=C/c2cc(OCc3cccnc3)c(O)cc2Br)Sc2ncccc21 |  | ≤ 500 | 2500 to 10000
Cc1nc(N)ncc1COc1cc(/C=C2\Sc3ncccc3C2=O)c(Br)cc1O |  | ≤ 500 | ≤ 2500
CC(Oc1cc(/C=C2\Sc3ncccc3C2=O)c(Br)cc1O)c1cnc(Cl)nc1 (configuration not stated) |  | ≤ 500 | 
COc1cc(/C(Br)=C2\SC(=O)N(C)C2=O)c(Br)cc1O |  | ≥ 10000 | 
CN1C(=O)S/C(=C\c2cc(OCc3cnc(NCc4ccccc4)nc3)c(O)cc2Br)C1=O |  | ≥ 10000 | 
COc1cc(/C=C2\SC(=O)N(C)C2=S)c(Br)cc1O |  | ≤ 500 | 
O=C1/C(=C/c2cc3nn[nH]c3cc2Br)Sc2ncccc21 |  | ≤ 500 | 
C/N=C1/S/C(=C\c2cc(OC)c(O)cc2Br)C(=O)N1C |  | ≥ 10000 | 
Nc1ncc(COc2cc(/C=C3\Sc4ncccc4C3=O)c(Br)cc2O)c(C2CC2)n1 |  | ≤ 500 | 2500 to 10000
CN1C(=O)S/C(=C\c2cc3c(Cc4cnc(N)nc4)c[nH]c3cc2Br)C1=O |  | ≥ 10000 | 
O=C1/C(=C/c2ccc(O)cc2Br)Sc2ncccc21 |  | ≤ 500 | 
CC(Oc1cc(/C=C2\SC(=O)N(C)C2=O)c(Br)cc1O)c1cnc(NCCO)nc1 (configuration not stated) |  | 500 to 10000 | 
COc1ncc(COc2cc(/C=C3\SC(=O)N(C)C3=O)c(Br)cc2O)cn1 |  | 500 to 10000 | 
CC(Cc1cnc(N)nc1)Oc1cc(/C=C2\SC(=O)N(C)C2=O)c(Br)c(F)c1O (configuration not stated) |  | 500 to 10000 | 
O=C1/C(=C/c2cc(C(F)(F)F)c(O)cc2Br)Sc2ncccc21 |  | ≤ 500 | 
O=C1NC(=O)/C(=C/c2ccnnc2)N1 |  | ≥ 10000 | 
CN1C(=O)S/C(=C\c2cc(CCc3cnc(N)nc3)c(O)cc2Br)C1=O |  | 500 to 10000 | 
CN1C(=O)S/C(=C\c2cc(OCc3cnc(N)nc3C3CC3)c(O)c(F)c2Br)C1=O |  | 500 to 10000 | 
CN1C(=O)S/C(=C\c2cc3cc[nH]c3c(F)c2Br)C1=O |  | 500 to 10000 | 
O=C1NC(=O)/C(=C/c2ccncc2)S1 |  | ≤ 500 | 
CC(Oc1cc(/C=C2\SC(=O)N(C)C2=O)c(Br)c(F)c1O)c1cncnc1N (configuration not stated) |  | 500 to 10000 | ≥ 10000
CN1C(=O)S/C(=C\c2cc(CCc3ccc([S+](C)[O-])cc3)c(O)cc2Br)C1=O (configuration not stated) |  | ≥ 10000 | 
COc1cc(/C=c2\sc3n(c2=O)CCN=3)c(Br)cc1O |  | ≥ 10000 | 
CN1C(=O)S/C(=C\c2cc(OCc3cc[nH]c(=O)c3)c(O)cc2Br)C1=O |  | 500 to 10000 | 
CN1C(=O)S/C(=C\c2cc(OCc3cccc4[nH]ccc34)c(O)cc2Br)C1=O |  | 500 to 10000 | 2500 to 10000

Other lines, results leading:

IC50 [1] [µM] | IC50 [2] [nM] | IC50 [3] [nM] | Structure (SMILES)
 | ≤ 500 | ≤ 2500 | COc1cc(/C=C2\SC(=O)N(C)C2=O)c(Cl)cc1O
≥ 10 | ≤ 500 | ≤ 2500 | CN1C(=O)S/C(=C\c2cc(OCc3cnc(NN)nc3)c(O)cc2Br)C1=O
≥ 10 | ≤ 500 | ≥ 10000 | CN1C(=O)S/C(=C\c2cc3c(Cc4cnc(N)nc4)c[nH]c3c(F)c2Br)C1=O
 | ≤ 500 | 2500 to 10000 | CC(Oc1cc(/C=C2\Sc3ncccc3C2=O)c(Br)c(F)c1O)c1cnc(N)nc1 (configuration not stated)
 | ≤ 500 | ≥ 10000 | CN1C(=O)S/C(=C\c2cc(OCc3cnc([S+](C)[O-])nc3N)c(O)c(F)c2Br)C1=O (configuration not stated)
≥ 10 | ≤ 500 | ≤ 2500 | CNc1ncc(COc2cc(/C=C3\SC(=O)N(C)C3=O)c(Br)cc2O)cn1
 | ≤ 500 | ≤ 2500 | CCOc1cc(/C=C2\SC(=O)N(C)C2=O)c(Br)cc1O
 | 500 to 10000 | ≥ 10000 | CC(Oc1cc(/C=c2\sc3nccn3c2=O)c(Br)c(F)c1O)c1cnc(N)nc1 (configuration not stated)
 | ≤ 500 | ≥ 10000 | CN1C(=O)S/C(=C\c2cc(OCc3cncnc3N)c(O)c(F)c2Br)C1=O
 | ≤ 500 | ≤ 2500 | CC(Oc1cc(/C=C2\SC(=O)N(C)C2=O)c(Br)c(F)c1O)c1cnc(N)nc1 (configuration not stated)
 | ≤ 500 |  | CC(Oc1cc(/C=C2\SC(=O)N(C)C2=O)c(Br)c(F)c1O)C(O)c1cncnc1N (configuration not stated)
 | ≥ 10000 |  | CN1C(=O)S/C(=C\c2cc(Oc3ccnc(N)c3)c(O)cc2Br)C1=O
 | ≤ 500 |  | CN1C(=O)S/C(=C\c2cc(OCc3cncnc3O)c(O)cc2Br)C1=O
 | ≥ 10000 |  | CN1C(=O)S/C(=C\c2cc(OCc3cnc(N4CCCC4)nc3)c(O)cc2Br)C1=O
 | ≥ 10000 |  | CN1C(=O)S/C(=C\c2cc(OCc3cnc(S(C)(=O)=O)nc3Cl)c(O)cc2Br)C1=O
 | ≤ 500 | 2500 to 10000 | Cc1ncc(COc2cc(/C=C3\SC(=O)C(C)C3=O)c(Br)c(F)c2O)c(N)n1 (configuration not stated)
 | ≥ 10000 |  | CN1C(=O)S/C(=C\c2cc(Oc3ccc([N+](=O)[O-])nc3)c(O)cc2Br)C1=O

IC50 [1] [µM] | IC50 [2] [nM] | IC50 [3] [nM] | Structure (SMILES)
 | ≥ 10000 |  | CN1C(=O)S/C(=C\c2cc(OCc3cncc(NC(=O)c4cccnc4)c3)c(O)cc2Br)C1=O
 | ≥ 10000 |  | CC(C)CNc1cncc(COc2cc(/C=C3\SC(=O)N(C)C3=O)c(Br)cc2O)c1
 | ≥ 10000 |  | CN1C(=O)S/C(=C\c2cc(OCc3ccc4ncccc4c3)c(O)cc2Br)C1=O
 | ≥ 10000 |  | CC(C)CNc1ncc(COc2cc(/C=C3\SC(=O)N(C)C3=O)c(Br)cc2O)cn1
 | ≥ 10000 |  | CC(C)COc1cc(/C=C2\SC(=O)N(C)C2=O)c(Br)cc1O
 | ≤ 500 | ≤ 2500 | CN1C(=O)S/C(=C\c2cc(OCCc3cnc(N)nc3)c(O)cc2Br)C1=O
 | ≥ 10000 |  | COc1cc(/C=C2\SC(=O)N(C)C2=O)c(Br)cc1Oc1ccncc1
 | ≤ 500 |  | CN1C(=O)S/C(=C\c2cc(OCc3cnc(N)nc3C(F)(F)F)c(O)cc2Br)C1=O
 | ≥ 10000 |  | CC(=O)c1cc(/C=C2\SC(=O)N(C)C2=O)c(Br)cc1O
 | ≤ 500 | 2500 to 10000 | CC(Oc1cc(/C=C2\Sc3ncc(F)cc3C2=O)c(Br)c(F)c1O)c1cnc(N)nc1 (configuration not stated)
 | ≥ 10000 |  | CN1C(=O)S/C(=C\c2cc(OCc3cnc(N(C)C)nc3)c(O)cc2Br)C1=O
 | ≤ 500 |  | CN1C(=O)S/C(=C\c2cc(OCc3cnc(NCc4ccncc4)nc3)c(O)c(F)c2Br)C1=O
 | ≥ 10000 |  | CN1C(=O)S/C(=C\c2cc(OCc3cnc(N4CCOCC4)nc3)c(O)cc2Br)C1=O
 | ≥ 10000 |  | COc1nc([S+](C)[O-])ncc1COc1cc(/C=C2\SC(=O)N(C)C2=O)c(Br)cc1O (configuration not stated)
 | ≥ 10000 |  | COc1cccc(Oc2cc(/C=C3\SC(=O)N(C)C3=O)c(Br)cc2O)c1N
 | ≥ 10000 |  | CC(Oc1cc(/C=C2\SC(=O)N(C)C2=O)c(Br)c(F)c1O)c1cncnc1 (configuration not stated)
